Consider seven compounds from patent US11491157B2, “Cycloalkyl substituted pyrazolopyrimidines having activity against RSV” (priority 2018, dated 2022).

One data set concerns rgRSV224 virus. The data set can be described thus: Antiviral activity: rgRSV224 (GFP) replication in HeLa cells. The conditions noted are these: human respiratory syncytial virus, 72 h, read-out: RSV HELA EC50.
A short description of a further data set: in vitro. Conditions: human.

Molecules are shown by their SMILES. Some results are limits rather than exact numbers.

Experimental for rgRSV224 virus: Black 384-well clear-bottom microtiter plates (Corning, Amsterdam, The Netherlands) were filled via acoustic drop ejection using the echo liquid handler (Labcyte, Sunnyvale, Calif.). 200 nL of compound stock solutions (100% DMSO) were transferred to the assay plates. 9 serial 4-fold dilutions of compound were made, creating per quadrant the same compound concentration. The assay was initiated by adding 10 μL of culture medium to each well (RPMI medium without phenol red, 10% FBS-heat inactivated, 0.04% gentamycin (50 mg/mL). All addition steps are done by using a multidrop dispenser (Thermo Scientific, Erembodegem, Belgium). Next, rgRSV224 virus (MOI=1) diluted in culture medium was added to the plates. rgRSV224 virus is an engineered virus that includes an additional GFP gene (Hallak L K, Spillmann D, Collins P L, Peeples M E. Glycosaminoglycan sulfation requirements for respiratory syncytial virus infection; Journal of virology (2000), 74(22), 10508-13) and was in-licensed from the NIH (Bethesda, Md., USA). Finally, 20 μL of a HeLa cell suspension (3,000 cells/well) were plated. Medium, virus- and mock-infected controls were included in each test. The wells contain 0.05% DMSO per volume. Cells were incubated at 37° C. in a 5% CO2 atmosphere. Three days post-virus exposure, viral replication was quantified by measuring GFP expression in the cells by an in house developed MSM laser microscope (Tibotec, Beerse, Belgium). The EC50 was defined as the 50% inhibitory concentration for GFP expression. In parallel, compounds were incubated for three days in a set of white 384-well microtiter plates (Corning) and the cytotoxicity of compounds in HeLa cells was determined by measuring the ATP content of the cells using the ATPlite kit (Perkin Elmer, Zaventem, Belgium) according to the manufacturer's instructions. The CC50 was defined as the 50% concentration for cytotoxicity.

Usually melting point stands for the temperature, or range, at which the solid turns liquid. In general, EC50 refers to the concentration needed to bring the measured effect to its halfway point. As for `C[C@@H]1c2cc(F)sc2CCN1C(=O)c1cc(C2CC2)n2nc(-c3ccc([C@H]4C[C@@H]4C(N)=O)cc3F)cc2n1` (relative stereo) [Compound 11, (1S,2S)-2-(4-{7-Cyclopropyl-5-[(4*R)-2-fluoro-4-methyl-4,5,6,7-tetrahydro-thieno[3,2-c]pyridine-5-carbonyl]pyrazolo[1,5-a]pyrimidin-2-yl}-3-fluorophenyl)cyclopropane-1-carboxamide], the melting point was determined as 300.14 °C. The 50% effective concentration (EC50) with rgRSV224 virus was 44 nM.
`C[C@@H]1c2ccsc2CCN1C(=O)c1cc(C2CC2)n2nc(-c3ccc([C@H]4C[C@@H]4C(N)=O)cc3F)cc2n1` (single isomer, unassigned) [Compound 10, (1S,2S)-2-(4-{7-Cyclopropyl-5-[(4*R)-4-methyl-4,5,6,7-tetrahydro-thieno[3,2-c]pyridine-5-carbonyl]pyrazolo[1,5-a]pyrimidin-2-yl}-3-fluorophenyl)cyclopropane-1-carboxamide] registered a melting point of 302.9 °C. In addition, the CC50 at 3 days in the data set “in vitro” is over 25000 nM. Besides, in the data set on rgRSV224 virus, the EC50 stood at 14 nM.
The compound `C[C@@H]1c2ccsc2CCN1C(=O)c1cc(C2CC2)n2nc(-c3ccc([C@H]4C[C@@H]4C(=O)NS(C)(=O)=O)cc3F)cc2n1` (single isomer, unassigned) [Compound 28, (1S,2S)-2-(4-{7-Cyclopropyl-5-[(4*R)-4-methyl-4,5,6,7-tetrahydro-thieno[3,2-c]pyridine-5-carbonyl]pyrazolo[1,5-a]pyrimidin-2-yl}-3-fluorophenyl)-N-methanesulfonyl-cyclopropane-1-carboxamide] returned a melting point of 286.12 °C. Further, in the data set “in vitro”, the CC50 at 3 days stood at 53400 nM. In the data set with rgRSV224 virus, the EC50 stood at 37 nM.
`C[C@@H]1c2ccccc2CCN1C(=O)c1cc(C2CC2)n2nc(-c3ccc([C@H]4C[C@@H]4c4nnn[nH]4)cc3F)cc2n1` [Compound 4, (1R)-2-(7-Cyclopropyl-2-{2-fluoro-4-[(1S,2S)-2-(1H-1,2,3,4-tetrazol-5-yl)cyclopropyl]phenyl}pyrazolo[1,5-a]pyrimidine-5-carbonyl)-1-methyl-1,2,3,4-tetrahydroisoquinoline] registered a melting point of 254.07 °C. Also, the CC50 at 3 days in the data set “in vitro” turned out to be 44000 nM. In addition, in the data set with rgRSV224 virus, the EC50 stood at 120 nM.
The like results for `C[C@@H]1c2ccccc2CCN1C(=O)c1cc(C2CC2)n2nc(-c3ccc([C@H]4C[C@@H]4C(N)=O)cc3F)cc2n1` [Compound 7, (1S,2S)-2-(4-{7-Cyclopropyl-5-[(1R)-1-methyl-1,2,3,4-tetrahydroisoquinoline-2-carbonyl]pyrazolo[1,5-a]pyrimidin-2-yl}-3-fluorophenyl)cyclopropane-1-carboxamide] were, in that order, 280.69 °C, over 100000 nM and 30 nM.
`CNC(=O)[C@H]1C[C@@H]1c1ccc(-c2cc3nc(C(=O)N4CCc5ccccc5[C@H]4C)cc(C4CC4)n3n2)c(F)c1` [Compound 12, (1S,2S)-2-(4-{7-Cyclopropyl-5-[(1R)-1-methyl-1,2,3,4-tetrahydroisoquinoline-2-carbonyl]pyrazolo[1,5-a]pyrimidin-2-yl}-3-fluorophenyl)-N-methylcyclopropane-1-carboxamide] had a melting point of 258.18 °C. In the data set “in vitro”, this compound had a CC50 at 3 days of over 100000 nM. Moreover, the EC50 with rgRSV224 virus stood at 24 nM.
`CCCNC(=O)[C@H]1C[C@@H]1c1ccc(-c2cc3nc(C(=O)N4CCc5ccccc5[C@H]4C)cc(C4CC4)n3n2)c(F)c1` [Compound 15, (1S,2S)-2-(4-{7-Cyclopropyl-5-[(1R)-1-methyl-1,2,3,4-tetrahydroisoquinoline-2-carbonyl]pyrazolo[1,5-a]pyrimidin-2-yl}-3-fluorophenyl)-N-propylcyclopropane-1-carboxamide]: the melting point was determined as 238.1 °C. Besides, in the data set “in vitro”, the CC50 at 3 days was over 100000 nM. For the same compound, the EC50 in the data set with rgRSV224 virus was 408 nM.
